ChEMBL document CHEMBL5634193, “Discovery of CVN293, a Brain Permeable KCNK13 (THIK-1) Inhibitor Suitable for Clinical Assessment” (ACS Med Chem Lett, 2024)
Values after ≈ are worked out from the molar mass of the structure shown.

Target: T1, Potassium channel subfamily K member 13 (Homo sapiens, UniProt Q9HB14)
T1 sequence (Q9HB14 whole entry): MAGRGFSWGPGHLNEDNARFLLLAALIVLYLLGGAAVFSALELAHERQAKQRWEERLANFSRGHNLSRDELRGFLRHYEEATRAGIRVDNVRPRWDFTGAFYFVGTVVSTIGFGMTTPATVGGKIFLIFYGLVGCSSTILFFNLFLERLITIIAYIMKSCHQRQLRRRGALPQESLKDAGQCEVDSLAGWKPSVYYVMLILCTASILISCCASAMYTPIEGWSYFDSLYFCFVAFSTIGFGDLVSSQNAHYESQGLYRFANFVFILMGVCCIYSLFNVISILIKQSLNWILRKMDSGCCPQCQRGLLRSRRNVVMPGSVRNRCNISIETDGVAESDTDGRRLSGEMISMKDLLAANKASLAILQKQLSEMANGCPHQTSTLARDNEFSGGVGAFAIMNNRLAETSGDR
Assay: Inhibition of human KCNK13 transfected in HEK293 cells
Type: cell-based
Conditions: not given

| Structure (SMILES) | IC50 [µM] |
| --- | --- |
| c1ccc2c(c1)nc(-c1ncc[nH]1)n2Cc1ccncc1 | 3.43 |
| Nc1nonc1-c1nc2cccc(F)c2n1Cc1ccc(C(F)(F)F)nn1 | 0.084 |
| Nc1nonc1-c1nc2ccc(F)c(F)c2n1Cc1cccnn1 | 0.05 |
| Nc1nonc1-c1nc2cccc(F)c2n1Cc1ccncn1 | 0.046 |
| Nc1nonc1-c1nc2c(F)cccc2n1Cc1ccncc1 | 0.055 |
| Nc1nonc1-c1nc2c(F)ccc(F)c2n1Cc1cccnn1 | 0.037 |
| Nc1nonc1-c1nc2cccc(F)c2n1Cc1cncnc1 | 0.049 |
| Nc1nonc1-c1nc2cccc(F)c2n1Cc1cnccn1 | 0.047 |
| c1ccc2c(c1)nc(-c1ccn[nH]1)n2Cc1ccncc1 | 9.2 |
| c1ccc2c(c1)nc(-c1cocn1)n2Cc1ccncc1 | 2.94 |
| N#Cc1ccc(Cn2c(-c3nonc3N)nc3cccc(F)c32)nn1 | 0.05 |
| Nc1nonc1-c1nc2cccc(F)c2n1Cc1ccnnc1 | 0.05 |
| Nc1ncccc1-c1nc2ccccc2n1Cc1ccncc1 | > 22 |

More lines, now with the values ahead:

| IC50 [µM] | Structure (SMILES) |
| --- | --- |
| 0.034 | Nc1nonc1-c1nc2ccc(F)cc2n1Cc1ccncc1 |
| 0.042 | Nc1nonc1-c1nc2cc(F)ccc2n1Cc1ccncc1 |
| 0.046 | Nc1nonc1-c1nc2cccc(F)c2n1Cc1ccncc1 |
| 0.089 | Cc1nonc1-c1nc2ccccc2n1Cc1ccncc1 |
| > 22 | CC(=O)Nc1nonc1-c1nc2ccccc2n1Cc1ccncc1 |

Target: T2, Potassium channel subfamily K member 13 (Mus musculus, UniProt Q8R1P5)
T2 sequence (Q8R1P5 whole entry): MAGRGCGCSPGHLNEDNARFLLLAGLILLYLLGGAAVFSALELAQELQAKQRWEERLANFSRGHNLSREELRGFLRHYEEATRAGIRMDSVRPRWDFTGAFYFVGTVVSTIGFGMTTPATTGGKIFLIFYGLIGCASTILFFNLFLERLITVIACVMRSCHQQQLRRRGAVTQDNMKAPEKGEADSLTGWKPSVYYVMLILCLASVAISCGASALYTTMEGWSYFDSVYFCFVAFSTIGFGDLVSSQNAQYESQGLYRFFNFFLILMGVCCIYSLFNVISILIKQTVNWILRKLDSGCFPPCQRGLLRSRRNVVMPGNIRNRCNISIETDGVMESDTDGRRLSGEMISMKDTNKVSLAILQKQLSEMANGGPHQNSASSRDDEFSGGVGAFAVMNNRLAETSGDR
Assay: Inhibition of mouse KCNK13 transfected in HEK293 cells
Type: cell-based
Conditions: not given

| IC50 [µM] | Structure (SMILES) |
| --- | --- |
| 0.074 | Nc1nonc1-c1nc2cccc(F)c2n1Cc1ccc(C(F)(F)F)nn1 |
| 0.042 | Nc1nonc1-c1nc2c(F)ccc(F)c2n1Cc1cccnn1 |
| 0.026 | Nc1nonc1-c1nc2cccc(F)c2n1Cc1cncnc1 |
| 0.062 | Nc1nonc1-c1nc2cccc(F)c2n1Cc1cnccn1 |
| 0.035 | N#Cc1ccc(Cn2c(-c3nonc3N)nc3cccc(F)c32)nn1 |

Test system: not listed separately
Assay: Metabolic stability in human liver microsomes assessed as intrinsic clearance
Type: ADME, Microsome
Conditions: read-out: CLH

| Structure (SMILES) | microsomal CLint [µL/min/mg] |
| --- | --- |
| Nc1nonc1-c1nc2cccc(F)c2n1Cc1ccc(C(F)(F)F)nn1 | 18.3 |
| Nc1nonc1-c1nc2ccc(F)c(F)c2n1Cc1cccnn1 | < 9.6 |
| Nc1nonc1-c1nc2cccc(F)c2n1Cc1ccncn1 | 10 |
| Nc1nonc1-c1nc2c(F)cccc2n1Cc1ccncc1 | 25 |
| Nc1nonc1-c1nc2c(F)ccc(F)c2n1Cc1cccnn1 | 9.6 |
| Nc1nonc1-c1nc2cccc(F)c2n1Cc1cncnc1 | 10 |
| Nc1nonc1-c1nc2cccc(F)c2n1Cc1cnccn1 | 21 |
| N#Cc1ccc(Cn2c(-c3nonc3N)nc3cccc(F)c32)nn1 | 9.6 |
| Nc1nonc1-c1nc2cccc(F)c2n1Cc1ccnnc1 | 9.6 |

Second part, the compound after the results:

| microsomal CLint [µL/min/mg] | Structure (SMILES) |
| --- | --- |
| 37 | Nc1nonc1-c1nc2ccc(F)cc2n1Cc1ccncc1 |
| 19 | Nc1nonc1-c1nc2cc(F)ccc2n1Cc1ccncc1 |
| 24 | Nc1nonc1-c1nc2ccccc2n1Cc1ccncc1 |
| 14 | Nc1nonc1-c1nc2cccc(F)c2n1Cc1ccncc1 |
| 45 | Cc1nonc1-c1nc2ccccc2n1Cc1ccncc1 |
| 34 | CC(=O)Nc1nonc1-c1nc2ccccc2n1Cc1ccncc1 |

Test system: not listed separately
Assay: Metabolic stability in rat liver microsomes assessed as intrinsic clearance
Type: ADME, Microsome
Conditions: read-out: CLH

| Structure (SMILES) | microsomal CLint [µL/min/mg] |
| --- | --- |
| Nc1nonc1-c1nc2ccc(F)c(F)c2n1Cc1cccnn1 | 15.4 |
| Nc1nonc1-c1nc2cccc(F)c2n1Cc1ccncn1 | 77 |
| Nc1nonc1-c1nc2c(F)cccc2n1Cc1ccncc1 | 27 |
| Nc1nonc1-c1nc2c(F)ccc(F)c2n1Cc1cccnn1 | 12.6 |
| Nc1nonc1-c1nc2cccc(F)c2n1Cc1cncnc1 | 24 |
| Nc1nonc1-c1nc2cccc(F)c2n1Cc1cnccn1 | 68 |
| N#Cc1ccc(Cn2c(-c3nonc3N)nc3cccc(F)c32)nn1 | 40 |
| Nc1nonc1-c1nc2cccc(F)c2n1Cc1ccnnc1 | 31.6 |

Second part, the compound after the results:

| microsomal CLint [µL/min/mg] | Structure (SMILES) |
| --- | --- |
| 10 | Nc1nonc1-c1nc2ccc(F)cc2n1Cc1ccncc1 |
| 14 | Nc1nonc1-c1nc2cc(F)ccc2n1Cc1ccncc1 |
| 56 | Nc1nonc1-c1nc2ccccc2n1Cc1ccncc1 |
| 22 | Nc1nonc1-c1nc2cccc(F)c2n1Cc1ccncc1 |
| 47 | Cc1nonc1-c1nc2ccccc2n1Cc1ccncc1 |
| 45 | CC(=O)Nc1nonc1-c1nc2ccccc2n1Cc1ccncc1 |

Test system: not listed separately
Assay: Metabolic stability in mouse liver microsomes assessed as intrinsic clearance
Type: ADME, Microsome
Conditions: read-out: CLH

| Structure (SMILES) | microsomal CLint [µL/min/mg] |
| --- | --- |
| Nc1nonc1-c1nc2cccc(F)c2n1Cc1ccc(C(F)(F)F)nn1 | 245 |
| Nc1nonc1-c1nc2ccc(F)c(F)c2n1Cc1cccnn1 | < 9.6 |
| Nc1nonc1-c1nc2cccc(F)c2n1Cc1ccncn1 | 30 |
| Nc1nonc1-c1nc2c(F)cccc2n1Cc1ccncc1 | 74 |
| Nc1nonc1-c1nc2c(F)ccc(F)c2n1Cc1cccnn1 | 10.1 |
| Nc1nonc1-c1nc2cccc(F)c2n1Cc1cncnc1 | 18 |
| Nc1nonc1-c1nc2cccc(F)c2n1Cc1cnccn1 | 50 |
| N#Cc1ccc(Cn2c(-c3nonc3N)nc3cccc(F)c32)nn1 | 37 |
| Nc1nonc1-c1nc2cccc(F)c2n1Cc1ccnnc1 | 13.9 |

Continued, values first:

| microsomal CLint [µL/min/mg] | Structure (SMILES) |
| --- | --- |
| 58 | Nc1nonc1-c1nc2ccc(F)cc2n1Cc1ccncc1 |
| 28 | Nc1nonc1-c1nc2cc(F)ccc2n1Cc1ccncc1 |
| 66 | Nc1nonc1-c1nc2cccc(F)c2n1Cc1ccncc1 |

Test system: not listed separately
Assay: Protein binding in mouse plasma assessed as unbound fraction by equilibrium dialysis
Type: ADME, cell-free
Conditions: not given

| fraction unbound | Structure (SMILES) |
| --- | --- |
| 0.035 | Nc1nonc1-c1nc2cccc(F)c2n1Cc1ccc(C(F)(F)F)nn1 |
| 0.161 | Nc1nonc1-c1nc2ccc(F)c(F)c2n1Cc1cccnn1 |
| 0.111 | Nc1nonc1-c1nc2cccc(F)c2n1Cc1ccncn1 |
| 0.159 | Nc1nonc1-c1nc2c(F)ccc(F)c2n1Cc1cccnn1 |
| 0.129 | Nc1nonc1-c1nc2cccc(F)c2n1Cc1cncnc1 |
| 0.138 | Nc1nonc1-c1nc2cccc(F)c2n1Cc1cnccn1 |
| 0.071 | N#Cc1ccc(Cn2c(-c3nonc3N)nc3cccc(F)c32)nn1 |
| 0.188 | Nc1nonc1-c1nc2cccc(F)c2n1Cc1ccnnc1 |

Test system: not listed separately
Assay: Protein binding in mouse brain assessed as unbound fraction by equilibrium dialysis
Type: ADME, tissue-based
Conditions: not given

| fraction unbound | Structure (SMILES) |
| --- | --- |
| 0.024 | Nc1nonc1-c1nc2cccc(F)c2n1Cc1ccc(C(F)(F)F)nn1 |
| 0.097 | Nc1nonc1-c1nc2ccc(F)c(F)c2n1Cc1cccnn1 |
| 0.091 | Nc1nonc1-c1nc2cccc(F)c2n1Cc1ccncn1 |
| 0.13 | Nc1nonc1-c1nc2c(F)ccc(F)c2n1Cc1cccnn1 |
| 0.057 | Nc1nonc1-c1nc2cccc(F)c2n1Cc1cncnc1 |
| 0.077 | Nc1nonc1-c1nc2cccc(F)c2n1Cc1cnccn1 |
| 0.064 | N#Cc1ccc(Cn2c(-c3nonc3N)nc3cccc(F)c32)nn1 |
| 0.128 | Nc1nonc1-c1nc2cccc(F)c2n1Cc1ccnnc1 |

Test system: not listed separately
Assay: Kinetic aqueous solubility of compound at pH 7.4
Type: physicochemical
Conditions: buffer, read-out: Kinetic_solubility

| Structure (SMILES) | solubility kinetic [µM] |
| --- | --- |
| Nc1nonc1-c1nc2cccc(F)c2n1Cc1ccc(C(F)(F)F)nn1 | 1.6 (≈ 0.607 µg/mL) |
| Nc1nonc1-c1nc2ccc(F)c(F)c2n1Cc1cccnn1 | 3.9 (≈ 1.28 µg/mL) |
| Nc1nonc1-c1nc2cccc(F)c2n1Cc1ccncn1 | 9.9 (≈ 3.08 µg/mL) |
| Nc1nonc1-c1nc2c(F)cccc2n1Cc1ccncc1 | < 0.3 |
| Nc1nonc1-c1nc2c(F)ccc(F)c2n1Cc1cccnn1 | 12.9 (≈ 4.25 µg/mL) |
| Nc1nonc1-c1nc2cccc(F)c2n1Cc1cncnc1 | 6.5 (≈ 2.02 µg/mL) |
| Nc1nonc1-c1nc2cccc(F)c2n1Cc1cnccn1 | 10 (≈ 3.11 µg/mL) |
| N#Cc1ccc(Cn2c(-c3nonc3N)nc3cccc(F)c32)nn1 | 8.4 (≈ 2.82 µg/mL) |
| Nc1nonc1-c1nc2cccc(F)c2n1Cc1ccnnc1 | 10.4 (≈ 3.24 µg/mL) |

Results, then the compound that gave them:

| solubility kinetic [µM] | Structure (SMILES) |
| --- | --- |
| < 0.3 | Nc1nonc1-c1nc2ccc(F)cc2n1Cc1ccncc1 |
| < 0.3 | Nc1nonc1-c1nc2cc(F)ccc2n1Cc1ccncc1 |
| 3.7 (≈ 1.15 µg/mL) | Nc1nonc1-c1nc2cccc(F)c2n1Cc1ccncc1 |

Test system: not listed separately
Assay: Unbound drug concentration in C57BL/6 mouse plasma at 10 mg/kg, po measured after 4 hrs by LC-MS/MS analysis
Type: ADME, organism-based
Conditions: in vivo

| Cp(f) [nM] | Structure (SMILES) |
| --- | --- |
| 80 | Nc1nonc1-c1nc2ccc(F)c(F)c2n1Cc1cccnn1 |
| 793 | Nc1nonc1-c1nc2c(F)ccc(F)c2n1Cc1cccnn1 |
| 9 | Nc1nonc1-c1nc2cccc(F)c2n1Cc1cnccn1 |
| 9 | Nc1nonc1-c1nc2cccc(F)c2n1Cc1ccnnc1 |

Test system: not listed separately
Assay: Unbound drug concentration in C57BL/6 mouse brain at 10 mg/kg, po measured after 4 hrs by LC-MS/MS analysis
Type: ADME, organism-based
Conditions: in vivo

| Cp(f) [nM] | Structure (SMILES) |
| --- | --- |
| 56 | Nc1nonc1-c1nc2ccc(F)c(F)c2n1Cc1cccnn1 |
| 630 | Nc1nonc1-c1nc2c(F)ccc(F)c2n1Cc1cccnn1 |
| 18 | Nc1nonc1-c1nc2cccc(F)c2n1Cc1cnccn1 |
| 18 | Nc1nonc1-c1nc2cccc(F)c2n1Cc1ccnnc1 |

Test system: not listed separately
Assay: Ratio of drug concentration in brain to plasma C57BL/6 mouse at 10 mg/kg, po measured after 4 hrs by LC-MS/MS analysis
Type: ADME, organism-based
Conditions: brain and plasma, read-out: BPR

| Kp at 4 h | Structure (SMILES) |
| --- | --- |
| 1.17 | Nc1nonc1-c1nc2ccc(F)c(F)c2n1Cc1cccnn1 |
| 0.96 | Nc1nonc1-c1nc2c(F)ccc(F)c2n1Cc1cccnn1 |
| 0.56 | Nc1nonc1-c1nc2cccc(F)c2n1Cc1cnccn1 |
| 0.68 | Nc1nonc1-c1nc2cccc(F)c2n1Cc1ccnnc1 |

Test system: not listed separately
Assay: Ratio of unbound drug concentration in brain to plasma C57BL/6 mouse at 10 mg/kg, po measured after 4 hrs by LC-MS/MS analysis
Type: ADME, organism-based
Conditions: brain and plasma, read-out: K(p,uu,brain)

| Kp uu at 4 h | Structure (SMILES) |
| --- | --- |
| 0.7 | Nc1nonc1-c1nc2ccc(F)c(F)c2n1Cc1cccnn1 |
| 0.8 | Nc1nonc1-c1nc2c(F)ccc(F)c2n1Cc1cccnn1 |
| 2.2 | Nc1nonc1-c1nc2cccc(F)c2n1Cc1cnccn1 |
| 1.9 | Nc1nonc1-c1nc2cccc(F)c2n1Cc1ccnnc1 |
